Data on 14 molecules can be found in patent US20240269298A1, “PHOSPHONYL DERIVATIVE, AND COMPOSITION AND PHARMACEUTICAL APPLICATION THEREOF” (XIZANG HAISCO PHARMACEUTICAL CO., LTD., priority 2021, published 2024).

For this assay, the system named is NCI-H1975 (EGFR-L858R-T790M) cells. Nature of the assay: Inhibitory activity on proliferation of NCI-H1975 (EGFR-L858R-T790M) cells (CTG, 72 h). The settings on record: Homo sapiens. It counts as cell-based. The protocol: NCI-H1975 (EGFR-L858R-T790M) and A431 (EGFR-WT) cells were purchased from ATCC and cultured in an incubator at 37° C. with 5% CO2, and the culture mediums were RPMI1640+10% FBS and DMEM+10% FBS, respectively. On the first day, NCI-H1975 (EGFR-L858R-T790M) and A431 (EGFR-WT) cells in the logarithmic phase were collected, and viable cells were counted using an automatic cell analyzer (countstar). The cell suspensions were adjusted with the culture mediums and plated on a 96-well cell culture plate at 1000 cells/well for NCI-H1975 (EGFR-L858R-T790M) cells and at 3000 cells/well for A431 cells. The next day, the culture mediums were aspirated, and 90 μL of fresh culture mediums and 10 μL of the compounds at different concentrations were added to each well, wherein the final concentration of DMSO in each well was 0.1%. The plate was cultured in the incubator at 37° C. with 5% CO2 for 72 hours. After 72 hours of drug treatment, 50 μL of CTG solution (promega, G7572), which was already pre-melted and equilibrated to room temperature, was added to each well, and the mixtures were uniformly mixed for 2 min using a microplate shaker. The plate was placed at room temperature for 10 min, and then […] signal values were measured using a microplate reader (PHERAstar FSX).
Surviving cells % was calculated based on Vsample/Vvehicle control×100%, wherein Vsample was the readout of the drug-treated group, and Vvehicle control was the average value of the vehicle control group. Using the origin 9.2 software and nonlinear regression model, S-shaped dose-survival curves were plotted, and IC50 values were calculated.

Setting [1] is: read-out: IC50 (value in brackets).

Structures are written as SMILES. Like-named read-outs stand apart in the source and are kept apart here. Bounds are passed on as bounds.

The term IC50 denotes the concentration needed to halve the response being measured. Take `COc1cc(N2CCN(CC3CCN(c4ccc(C(=O)NC5CCC(=O)NC5=O)nc4)CC3)CC2)c(-c2cnn(C)c2)cc1Nc1ncc(Br)c(Nc2ccc(-c3ccccc3)cc2P(C)(C)=O)n1` (stereo not shown) [Compound 123, 5-(4-((4-(4-((5-bromo-4-((3-(dimethylphosphoryl)-[1,1′-biphenyl]-4-yl)amino)pyrimidin-2-yl)amino)-5-methoxy-2-(1-methyl-1H-pyrazol-4-yl)phenyl)piperazin-1-yl)methyl)piperidin-1-yl)-N-(2,6-dioxopiperidin-3-yl)picolinamide]: the concentration for half-maximal inhibition (IC50) (read-out: IC50 (class symbol)) is under 100 nM and the IC50 under setting [1] worked out at 51 nM.

Turning to `COc1cc(N2CCC(N3CCC(CN4CCN(c5ccc6c(c5)C(=O)N(C5CCC(=O)NC5=O)C6=O)CC4)CC3)CC2)c(-c2cnn(C)c2)cc1Nc1ncc(Cl)c(Nc2ccc(-c3ccccc3)cc2P(C)(C)=O)n1` (stereo not shown) [Compound 53, 5-(4-((1′-(4-((5-chloro-4-((3-(dimethylphosphoryl)-[1,1′-biphenyl]-4-yl)amino)pyrimidin-2-yl)amino)-5-methoxy-2-(1-methyl-1H-pyrazol-4-yl)phenyl)-[1,4′-bipiperidin]-4-yl)methyl)piperazin-1-yl)-2-(2,6-dioxopiperidin-3-yl)isoindoline-1,3-dione], the IC50 (read-out: IC50 (class symbol)) lay in the range of 100 to 500 nM and the concentration for half-maximal inhibition (IC50) under setting [1] was 182 nM.

In the case of `COc1cc(N2CCC(CN3CCN(c4ccc(C5CCC(=O)NC5=O)cc4)CC3)CC2)c(-c2cnn(C)c2)cc1Nc1ncc(Cl)c(Nc2ccccc2P(C)(C)=O)n1` (stereo not shown) [Compound 135, 3-(4-(4-((1-(4-((5-chloro-4-((2-(dimethylphosphoryl)phenyl)amino)pyrimidin-2-yl)amino)-5-methoxy-2-(1-methyl-1H-pyrazol-4-yl)phenyl)piperidin-4-yl)methyl)piperazin-1-yl)phenyl)piperidine-2,6-dione], the concentration for half-maximal inhibition (IC50) by setting is: (read-out: IC50 (class symbol)) under 100 nM; under setting [1], 82 nM.

With `COc1cc(N2CCC(N3CCC(CN4CCC5(CCCN(c6ccc7c(c6)C(=O)N(C6CCC(=O)NC6=O)C7=O)C5)CC4)CC3)CC2)c(-c2cnn(C)c2)cc1Nc1ncc(Cl)c(Nc2ccc3nccnc3c2P(C)(C)=O)n1` (stereo not shown) [Compound 16, 5-(9-((1′-(4-((5-chloro-4-((5-(dimethylphosphoryl)quinoxalin-6-yl)amino)pyrimidin-2-yl)amino)-5-methoxy-2-(1-methyl-1H-pyrazol-4-yl)phenyl)-[1,4′-bipiperidin]-4-yl)methyl)-2,9-diazaspiro[5.5]undecan-2-yl)-2-(2,6-dioxopiperidin-3-yl)isoindoline-1,3-dione], the half-inhibitory concentration (IC50) (read-out: IC50 (class symbol)) is under 100 nM and the half-inhibitory concentration (IC50) under setting [1] was 73 nM.

Turning to `COc1cc(N2CCC(CN3CCN(c4ccc(N5CCC(=O)NC5=O)cc4)CC3)CC2)c(-c2cnn(C)c2)cc1Nc1ncc(Cl)c(Nc2ccc(C3CC3)cc2P(C)(C)=O)n1` [Compound 131, 1-(4-(4-((1-(4-((5-chloro-4-((4-cyclopropyl-2-(dimethylphosphoryl)phenyl)amino)pyrimidin-2-yl)amino)-5-methoxy-2-(1-methyl-1H-pyrazol-4-yl)phenyl)piperidin-4-yl)methyl)piperazin-1-yl)phenyl)dihydropyrimidine-2,4(1H,3H)-dione], the IC50 runs as follows: (read-out: IC50 (class symbol)) 100 to 500 nM; under setting [1], 214 nM.

With `COc1cc(N2CCC(CN3CCN(c4ccc(N5CCC(=O)NC5=O)cc4)CC3)CC2)c(-c2cnn(C)c2)cc1Nc1ncc(Cl)c(Nc2ccc(-c3ccccc3)cc2P(C)(C)=O)n1` [Compound 136, 1-(4-(4-((1-(4-((5-chloro-4-((3-(dimethylphosphoryl)-[1,1′-biphenyl]-4-yl)amino)pyrimidin-2-yl)amino)-5-methoxy-2-(1-methyl-1H-pyrazol-4-yl)phenyl)piperidin-4-yl)methyl)piperazin-1-yl)phenyl)dihydropyrimidine-2,4(1H,3H)-dione], the IC50 runs as follows: (read-out: IC50 (class symbol)) 100 to 500 nM; under setting [1], 393 nM.

As for `COc1cc(N2CCC(N3CCC(N4CCC5(CCCN(c6ccc7c(c6)C(=O)N(C6CCC(=O)NC6=O)C7=O)C5)CC4)CC3)CC2)c(-c2cnn(C)c2)cc1Nc1ncc(Cl)c(Nc2ccc3nccnc3c2P(C)(C)=O)n1` (stereo not shown) [Compound 15, 5-(9-(1′-(4-((5-chloro-4-((5-(dimethylphosphoryl)quinoxalin-6-yl)amino)pyrimidin-2-yl)amino)-5-methoxy-2-(1-methyl-1H-pyrazol-4-yl)phenyl)-[1,4′-bipiperidin]-4-yl)-2,9-diazaspiro[5.5]undecan-2-yl)-2-(2,6-dioxopiperidin-3-yl)isoindoline-1,3-dione], the 50% inhibitory concentration (IC50) was under 100 nM (read-out: IC50 (class symbol)) and 66 nM under setting [1].

For `COc1cc(N2CCC3(CCN(Cc4cccc(NC5CCC(=O)NC5=O)c4)CC3)CC2)c(-c2cnn(C)c2)cc1Nc1ncc(Br)c(Nc2ccc(-c3ccccc3)cc2P(C)(C)=O)n1` (stereo not shown) [Compound 129, 3-((3-((9-(4-((5-bromo-4-((3-(dimethylphosphoryl)-[1,1′-biphenyl]-4-yl)amino)pyrimidin-2-yl)amino)-5-methoxy-2-(1-methyl-1H-pyrazol-4-yl)phenyl)-3,9-diazaspiro[5.5]undecan-3-yl)methyl)phenyl)amino)piperidine-2,6-dione], the 50% inhibitory concentration (IC50) by setting is: (read-out: IC50 (class symbol)) 100 to 500 nM; under setting [1], 125 nM.

`COc1cc(N2CCC(C3CCN(CC4CCN(c5ccc6c(c5)C(=O)N(C5CCC(=O)NC5=O)C6=O)CC4)CC3)CC2)c(-c2cnn(C)c2)cc1Nc1ncc(Cl)c(Nc2ccc3nccnc3c2P(C)(C)=O)n1` (stereo not shown) [Trifluoroacetate of compound 13, 5-(4-((1′-(4-((5-chloro-4-((5-(dimethylphosphoryl)quinoxalin-6-yl)amino)pyrimidin-2-yl)amino)-5-methoxy-2-(1-methyl-1H-pyrazol-4-yl)phenyl)-[4,4′-bipiperidin]-1-yl)methyl)piperidin-1-yl)-2-(2,6-dioxopiperidin-3-yl)isoindoline-1,3-dione]: the IC50 (read-out: IC50 (class symbol)) was under 100 nM and the IC50 under setting [1] amounted to 37 nM.

Consider `COc1cc(N2CCC3(CCN(CC4CCN(c5ccc6c(c5)C(=O)N(C5CCC(=O)NC5=O)C6=O)CC4)CC3)CC2)c(C2CC2)cc1Nc1ncc(Br)c(Nc2ccc3nccnc3c2P(C)(C)=O)n1` (stereo not shown) [Compound 3, 5-(4-((9-(4-((5-bromo-4-((5-(dimethylphosphoryl)quinoxalin-6-yl)amino)pyrimidin-2-yl)amino)-2-cyclopropyl-5-methoxyphenyl)-3,9-diazaspiro[5.5]undecan-3-yl)methyl)piperidin-1-yl)-2-(2,6-dioxopiperidin-3-yl)isoindoline-1,3-dione], for which the IC50 was under 100 nM (read-out: IC50 (class symbol)) and 75 nM under setting [1].

Regarding `COc1cc(N2CCC(CN3CCN(c4ccc(N5CCC(=O)NC5=O)cc4)CC3)CC2)c(-c2cnn(C)c2)cc1Nc1ncc(Cl)c(Nc2ccccc2P(C)(C)=O)n1` [Compound 132, 1-(4-(4-((1-(4-((5-chloro-4-((2-(dimethylphosphoryl)phenyl)amino)pyrimidin-2-yl)amino)-5-methoxy-2-(1-methyl-1H-pyrazol-4-yl)phenyl)piperidin-4-yl)methyl)piperazin-1-yl)phenyl)dihydropyrimidine-2,4(1H,3H)-dione], the half-inhibitory concentration (IC50) was 100 to 500 nM (read-out: IC50 (class symbol)) and 296 nM under setting [1].

Turning to `COc1cc(N2CCC(N3CCN(c4ccc5c(c4)C(=O)N(C4CCC(=O)NC4=O)C5=O)CC3)CC2)c(-c2cnn(C)c2)cc1Nc1ncc(Br)c(Nc2ccccc2P(C)(C)=O)n1` (stereo not shown) [Compound 114, 5-(4-(1-(4-((5-bromo-4-((2-(dimethylphosphoryl)phenyl)amino)pyrimidin-2-yl)amino)-5-methoxy-2-(1-methyl-1H-pyrazol-4-yl)phenyl)piperidin-4-yl)piperazin-1-yl)-2-(2,6-dioxopiperidin-3-yl)isoindoline-1,3-dione], the IC50 reads like this: (read-out: IC50 (class symbol)) under 100 nM; under setting [1], 60 nM.

For `COc1cc(N2CCN(C[C@H]3CCN(c4ccc5c(c4)C(=O)N(C4CCC(=O)NC4=O)C5=O)C3)CC2)c(-c2cnn(C)c2)cc1Nc1ncc(Cl)c(Nc2ccccc2P(C)(C)=O)n1` (stereo partly drawn) [Compound 120, 5-((R)-3-((4-(4-((5-chloro-4-((2-(dimethylphosphoryl)phenyl)amino)pyrimidin-2-yl)amino)-5-methoxy-2-(1-methyl-1H-pyrazol-4-yl)phenyl)piperazin-1-yl)methyl)pyrrolidin-1-yl)-2-(2,6-dioxopiperidin-3-yl)isoindoline-1,3-dione], the concentration for half-maximal inhibition (IC50) by setting is: (read-out: IC50 (class symbol)) under 100 nM; under setting [1], 25 nM.

As to `COc1cc(N2CCC(N3CCC(CN4CCN(c5ccc6c(c5)C(=O)N(C5CCC(=O)NC5=O)C6=O)CC4)CC3)CC2)c(-c2cnn(C)c2)cc1Nc1ncc(Br)c(Nc2ccc(-c3ccccc3)cc2P(C)(C)=O)n1` (stereo not shown) [Compound 43, 5-(4-((1′-(4-((5-bromo-4-((3-(dimethylphosphoryl)-[1,1′-biphenyl]-4-yl)amino)pyrimidin-2-yl)amino)-5-methoxy-2-(1-methyl-1H-pyrazol-4-yl)phenyl)-[1,4′-bipiperidin]-4-yl)methyl)piperazin-1-yl)-2-(2,6-dioxopiperidin-3-yl)isoindoline-1,3-dione], the half-inhibitory concentration (IC50) was under 100 nM (read-out: IC50 (class symbol)) and 80 nM under setting [1].
